Experimental findings from patent US20230365592A1 (Agios Pharmaceuticals, Inc., priority 2022, published 2023) are described below.

The target of the first assay is T1, human PAH with the R408W mutation (Homo sapiens, UniProt P00439, R408W).
T1 construct: expressed in transfected cells
T1 sequence (P00439 1-452 R408W): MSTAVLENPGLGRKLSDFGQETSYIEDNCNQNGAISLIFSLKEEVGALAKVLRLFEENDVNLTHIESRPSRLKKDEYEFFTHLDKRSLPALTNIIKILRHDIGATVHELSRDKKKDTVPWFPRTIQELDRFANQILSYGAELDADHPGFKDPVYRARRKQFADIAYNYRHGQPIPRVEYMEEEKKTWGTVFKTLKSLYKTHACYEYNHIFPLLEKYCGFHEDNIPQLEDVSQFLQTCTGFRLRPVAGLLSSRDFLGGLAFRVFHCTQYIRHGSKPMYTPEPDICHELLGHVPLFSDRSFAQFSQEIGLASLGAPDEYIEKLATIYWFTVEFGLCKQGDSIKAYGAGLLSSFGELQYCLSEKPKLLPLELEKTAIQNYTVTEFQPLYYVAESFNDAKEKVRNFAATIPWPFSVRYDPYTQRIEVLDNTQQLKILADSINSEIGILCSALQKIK
The assay is described as follows: Cell Based Phenylalanine Flux Assay.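 Also: after compound treatment, cells received sepiapterin plus isotope-labelled Phenylalanine for 4 hours, then labelled Tyrosine in the medium was quantified, 10-point 2-fold dilution series run in duplicate.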 The conditions noted are these: A375 cells expressing R408W PAH; 24 hrs with compound, then 20 µM sepiapterin and 800 µM 13C9,15N-Phenylalanine for 4 hours; 13C-Tyrosine by LC-MS; average where tested multiple times; read-out: AC50.
Broadly, the AC50 is the concentration giving half of the maximal activity seen. As to `Fc1cccnc1-c1nnc(N2CCc3[nH]cnc3C2c2cc3c(C(F)F)cccn3n2)o1` (centres unmarked), the half-maximal activity concentration (AC50) lay within 1 to 5 µM. Still for that read-out and setting: the figure for `Cc1cccc2cc(C3c4nc[nH]c4CCN3c3ncccn3)nn12` (centres unmarked) is 1 to 5 µM; for `Nc1cnc(N2CCc3[nH]cnc3C2c2cc3cccc(Cl)n3n2)nc1` (centres unmarked) it is 1 to 5 µM.

Take `Cc1nnc(C(=O)N2CCc3[nH]cnc3C2c2cc3cccc(Cl)n3n2)o1` (centres unmarked): the AC50 lay within 1 to 5 µM. With `CC(C)(F)c1nnc(C(=O)N2CCc3[nH]cnc3C2c2cc3ccccn3n2)o1` (centres unmarked), the AC50 is 1 to 5 µM.

On to `Cn1cc(-c2nnc(C(=O)N3CCc4[nH]cnc4C3c3cc4cc(C(F)(F)F)ccn4n3)o2)cn1` (centres unmarked), for which the half-maximal activity concentration (AC50) is 1 to 5 µM. The same measure, in the same setting: the value for `CC(C)(C)c1nnc(N2CCc3[nH]cnc3C2c2cc3cccc(C(F)(F)F)n3n2)o1` (centres unmarked) was over 5 µM. Still for that read-out and setting: the value for `Cc1nnc(N2CCc3[nH]cnc3C2c2cc3c(OC(F)F)cccn3n2)o1` (centres unmarked) was 1 to 5 µM. Still for that read-out and setting: the value for `Cc1nc(C(=O)N2CCc3[nH]cnc3C2c2cc3cccc(C(F)(F)F)n3n2)n(C)n1` (centres unmarked) was 1 to 5 µM; that for `COc1cccn2nc(C3c4nc[nH]c4CCN3C(=O)c3nnc(-c4ccn(C)n4)o3)cc12` (single isomer, unassigned) was over 5 µM.

Staying with this assay, now noted: A375 cells expressing human PAH R408W; 24 hrs compound incubation; 13C-Tyrosine by LC-MS; average where tested multiple times; read-out: AC50.
For the molecule `Fc1cccc(F)c1-c1nnc(N2CCc3[nH]cnc3[C@H]2c2cc3cccc(C(F)(F)F)n3n2)o1` [Example 2133, (S)-2-(2,6-difluorophenyl)-5-(4-(7-(trifluoromethyl)pyrazolo[1,5-a]pyridin-2-yl)-1,4,6,7-tetrahydro-5H-imidazo[4,5-c]pyridin-5-yl)-1,3,4-oxadiazole], the half-maximal activity concentration (AC50) was under 0.5 µM. On the same count and under the same terms, the value for `Cc1cccn2nc([C@H]3c4nc[nH]c4CCN3C(=O)c3ocnc3C3CC3)cc12` [Example 1945, (R)-(4-cyclopropyloxazol-5-yl)(4-(4-methylpyrazolo[1,5-a]pyridin-2-yl)-1,4,6,7-tetrahydro-5H-imidazo[4,5-c]pyridin-5-yl)methanone] was 1 to 5 µM.

Staying with this assay, now noted: A375 cells expressing human R408W PAH; 24 hrs compound incubation; 13C-Tyrosine by LC-MS; average where tested multiple times; read-out: AC50.
Take `Fc1cccn2nc([C@@H]3c4nc[nH]c4CCN3c3nnc(C(F)F)o3)cc12` [Example 1737, (S)-2-(difluoromethyl)-5-(4-(4-fluoropyrazolo[1,5-a]pyridin-2-yl)-6,7-dihydro-1H-imidazo[4,5-c]pyridin-5(4H)-yl)-1,3,4-oxadiazole]: the AC50 fell in the range of 0.5 to 1 µM. Same read-out and setting: the value for `Cc1cccn2nc([C@H]3c4nc[nH]c4CCN3C(=O)c3nnc(-c4ccncc4)o3)cc12` [Example 851, (R)-(4-(4-methylpyrazolo[1,5-a]pyridin-2-yl)-6,7-dihydro-1H-imidazo[4,5-c]pyridin-5(4H)-yl)(5-(pyridin-4-yl)-1,3,4-oxadiazol-2-yl)methanone] was over 5 µM. Still for that read-out and setting: the value for `Cc1cccn2nc([C@@H]3c4nc[nH]c4CCN3C(=O)c3nnc(-c4cc(C)n(C)n4)o3)cc12` [Example 854, (S)-(5-(1,5-dimethyl-1H-pyrazol-3-yl)-1,3,4-oxadiazol-2-yl)(4-(4-methylpyrazolo[1,5-a]pyridin-2-yl)-6,7-dihydro-1H-imidazo[4,5-c]pyridin-5(4H)-yl)methanone] was under 0.5 µM; that for `Cc1cccn2nc([C@@H]3c4nc[nH]c4CCN3C(=O)c3oc(-c4cn(C)cn4)nc3C(F)F)cc12` [Example 931, (S)-(4-(difluoromethyl)-2-(1-methyl-1H-imidazol-4-yl)oxazol-5-yl)(4-(4-methylpyrazolo[1,5-a]pyridin-2-yl)-6,7-dihydro-1H-imidazo[4,5-c]pyridin-5(4H)-yl)methanone] was under 0.5 µM; that for `Cc1cccn2nc([C@H]3c4nc[nH]c4CCN3C(=O)c3nnc(-c4cnn(C5CCC5)c4)o3)cc12` [Example 1039, (R)-(5-(1-cyclobutyl-1H-pyrazol-4-yl)-1,3,4-oxadiazol-2-yl)(4-(4-methylpyrazolo[1,5-a]pyridin-2-yl)-6,7-dihydro-1H-imidazo[4,5-c]pyridin-5(4H)-yl)methanone] was over 5 µM. Same read-out and setting: the figure for `Cc1cccc2cc([C@@H]3c4nc[nH]c4CCN3C(=O)c3oc([C@H](C)O)nc3C(F)F)nn12` [Example 1152, (4-(difluoromethyl)-2-((S)-1-hydroxyethyl)oxazol-5-yl)((S)-4-(7-methylpyrazolo[1,5-a]pyridin-2-yl)-6,7-dihydro-1H-imidazo[4,5-c]pyridin-5(4H)-yl)methanone] is under 0.5 µM; for `Cn1ccc(-c2nnc(C(=O)N3CCc4[nH]cnc4[C@H]3c3cc4cccc(C(F)(F)F)n4n3)o2)n1` [Example 1030, (S)-(5-(1-methyl-1H-pyrazol-3-yl)-1,3,4-oxadiazol-2-yl)(4-(7-(trifluoromethyl)pyrazolo[1,5-a]pyridin-2-yl)-6,7-dihydro-1H-imidazo[4,5-c]pyridin-5(4H)-yl)methanone] it is under 0.5 µM. On to `CC1(c2nnc(C(=O)N3CCc4[nH]cnc4[C@H]3c3cc4c(F)cccn4n3)o2)CC1` [Example 1378, (S)-(4-(4-fluoropyrazolo[1,5-a]pyridin-2-yl)-6,7-dihydro-1H-imidazo[4,5-c]pyridin-5(4H)-yl)(5-(1-methylcyclopropyl)-1,3,4-oxadiazol-2-yl)methanone], for which the half-maximal activity concentration (AC50) was under 0.5 µM. Still for that read-out and setting: the value for `FC(F)(F)c1cnc(N2CCc3[nH]cnc3[C@H]2c2cc3c(Cl)cccn3n2)nc1` [Example 1780, (S)-4-(4-chloropyrazolo[1,5-a]pyridin-2-yl)-5-(5-(trifluoromethyl)pyrimidin-2-yl)-4,5,6,7-tetrahydro-1H-imidazo[4,5-c]pyridine] was under 0.5 µM. Same read-out and setting: the value for `Cc1cccc(-c2nnc(C(=O)N3CCc4[nH]cnc4[C@H]3c3cc4cccc(C(F)(F)F)n4n3)o2)n1` [Example 1400, (S)-(5-(6-methylpyridin-2-yl)-1,3,4-oxadiazol-2-yl)(4-(7-(trifluoromethyl)pyrazolo[1,5-a]pyridin-2-yl)-6,7-dihydro-1H-imidazo[4,5-c]pyridin-5(4H)-yl)methanone] was under 0.5 µM; that for `Cn1cc(C(=O)N2CCc3[nH]cnc3[C@@H]2c2cc3ccccn3n2)c(Cl)n1` [Example 664, (R)-(3-chloro-1-methyl-1H-pyrazol-4-yl)(4-(pyrazolo[1,5-a]pyridin-2-yl)-6,7-dihydro-1H-imidazo[4,5-c]pyridin-5(4H)-yl)methanone] was over 5 µM; that for `Cc1cccn2nc([C@@H]3c4nc[nH]c4CCN3C(=O)c3nnc(-c4cnn(S(=O)(=O)C5CC5)c4)o3)cc12` [Example 852, (S)-(5-(1-(cyclopropylsulfonyl)-1H-pyrazol-4-yl)-1,3,4-oxadiazol-2-yl)(4-(4-methylpyrazolo[1,5-a]pyridin-2-yl)-6,7-dihydro-1H-imidazo[4,5-c]pyridin-5(4H)-yl)methanone] was 0.5 to 1 µM. Still for that read-out and setting: the figure for `CC(C)(O)c1nc(C(F)F)c(C(=O)N2CCc3[nH]cnc3[C@H]2c2cc3c(F)cccn3n2)o1` [Example 714, (S)-(4-(difluoromethyl)-2-(2-hydroxypropan-2-yl)oxazol-5-yl)(4-(4-fluoropyrazolo[1,5-a]pyridin-2-yl)-6,7-dihydro-1H-imidazo[4,5-c]pyridin-5(4H)-yl)methanone] is under 0.5 µM; for `Cc1cccn2nc([C@@H]3c4nc[nH]c4CCN3C(=O)c3ncnn3C)cc12` [Example 838, (S)-(1-methyl-1H-1,2,4-triazol-5-yl)(4-(4-methylpyrazolo[1,5-a]pyridin-2-yl)-6,7-dihydro-1H-imidazo[4,5-c]pyridin-5(4H)-yl)methanone] it is under 0.5 µM.
